Counter-ions that a name gives are not always drawn.
Biological target: T1, α-1 Adrenoceptors (Rat Aorta) (Rattus norvegicus, UniProt P23944)
T1 construct: Rat Aorta; from tissue; host or cells: rat aorta
T1 sequence (P23944 1-561): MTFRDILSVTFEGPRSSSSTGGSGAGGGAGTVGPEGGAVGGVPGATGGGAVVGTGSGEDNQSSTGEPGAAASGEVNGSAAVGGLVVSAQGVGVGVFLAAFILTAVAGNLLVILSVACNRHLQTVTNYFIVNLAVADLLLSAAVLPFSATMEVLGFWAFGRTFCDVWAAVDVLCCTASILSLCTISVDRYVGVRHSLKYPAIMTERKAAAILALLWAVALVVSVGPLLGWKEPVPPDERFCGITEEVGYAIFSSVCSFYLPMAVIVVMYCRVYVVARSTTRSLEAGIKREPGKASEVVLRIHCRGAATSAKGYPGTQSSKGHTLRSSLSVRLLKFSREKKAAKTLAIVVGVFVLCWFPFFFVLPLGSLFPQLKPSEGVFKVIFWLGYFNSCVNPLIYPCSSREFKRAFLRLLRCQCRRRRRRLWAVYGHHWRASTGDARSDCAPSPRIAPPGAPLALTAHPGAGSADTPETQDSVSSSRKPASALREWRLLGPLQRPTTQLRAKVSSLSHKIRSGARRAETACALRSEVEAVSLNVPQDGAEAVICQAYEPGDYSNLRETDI
Test: Functional antagonism at α-1 adrenoceptors, rat aorta
Assay type: cell-based
Summary of the method: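 Phenylephrine dose-response curves for contraction were repeated against increasing test-agent concentrations. pA2 was derived by Schild plot [[…] vs log molarity of test agent].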

## COc1ccc2c(n1)sc1c(=O)n(CCCCN3C[C@@H]4COc5cccc(OC)c5[C@@H]4C3)c(=O)[nH]c12 [Example 33, hydrochloride]
  In Vitro Characterization (pA2) Rat Aorta: 9.15

— patent US5891882A, “Benzopyranopyrrole and benzopyranopyridine α-1 adenergic compounds” (priority 1997, dated 1999)
